The IC50 is the midpoint of a concentration-inhibition curve. The low end stands for greater potency, the high end for weaker potency.

This assay relates to MDA-MB-361. Description: MDA-MB-361 proliferation. Type of assay: cell-based. Conditions: Homo sapiens; in vitro IC50, MDA-MB-361 cells. The method, then:
The ability of one or more subject compounds to inhibit tumor cell line proliferation is determined according to standard procedures known in the art. For instance, an in vitro cellular proliferation assay can be performed to measure the metabolic activity of live cells. The assay is performed in a 96 well microtiter plate using Alamar Blue reduction. Human tumor cell lines are obtained from ATCC (e.g., MCF7, U-87 MG, MDA-MB-468, PC-3), grown to confluency in T75 flasks, trypsinized with 0.25% trypsin, washed one time with Tumor Cell Media (DMEM+10% FBS), and plated in 90 ul at 5,000 cells/well in Tumor Cell Media. A compound disclosed herein is diluted in Tumor Cell Media and added in a 10 ul volume. Plates are incubated for 72 hours at 37 C and 5% CO2. A volume of 10 uL of Alamar Blue reagent is added to each well and plates are incubated for 3 hours at 37 C and 5% CO2. Alamar Blue fluoresce is read at 560 Ex/590 Em, and IC50 values are calculated using GraphPad Prism 5.
Cells comprising one or more mutations in PI3Kα, including but not limited to breast cancer cells (e.g., MDA-MB-361 and T47D), and cells comprising one or more mutations in PTEN including but not limited to prostate cancer cells (e.g., PC3), are typically grown in cell growth media such as DMEM supplemented with fetal bovine serum and/or antibiotics, and grown to confluency. Cells are then treated with various concentrations of test compound for about 2 hours and subsequently lysed in cell lysis buffer. Lysates are subjected to SDS-PAGE followed by Western blot analysis to detect downstream signaling markers, including but not limited to pAKT(S473), pAKT(T308), pS6, and p4E-BP1. Degree of proliferation (and proliferation inhibition) can also be measured for cells at various doses of compound of the present invention.
With `C[C@H]1CN(c2cnc3ccc(-c4ccc5oc(N)nc5c4)nc3n2)CCN1` [Compound 1], the IC50 is < 10 µM. The result for `Nc1nc2cc(-c3ccc4ncc(N5CCOCC5)nc4n3)ccc2o1` [Compound 2, 5-(3-morpholinopyrido[2,3-b]pyrazin-6-yl)benzo[d]oxazol-2-amine] reads < 1 µM; that for `CN1CCN(c2cnc3ccc(-c4ccc5oc(N)nc5c4)nc3n2)CC1` [Compound 4], < 10 µM. The result for `Nc1nc2cc(-c3ccc4ncc(N5CC(N6CCOCC6)C5)nc4n3)ccc2o1` [Compound 5] reads < 10 µM; that for `CCOC(=O)N1CCN(c2cnc3ccc(-c4ccc5oc(N)nc5c4)nc3n2)CC1` [Compound 6], < 1 µM.

Take `CS(=O)(=O)N1CCN(C2CN(c3cnc4ccc(-c5ccc6oc(N)nc6c5)nc4n3)C2)CC1` [Compound 8]: the IC50 is < 10 µM.

As to `CCOC(=O)N1CC=C(c2cnc3ccc(-c4ccc5oc(N)nc5c4)nc3n2)CC1` [Compound 9], the IC50 is < 1 µM. The result for `C[C@H]1CN(C2CN(c3cnc4ccc(-c5ccc6oc(N)nc6c5)nc4n3)C2)CCN1` [Compound 10] reads < 10 µM; that for `C[C@@H]1CN(C2CN(c3cnc4ccc(-c5ccc6oc(N)nc6c5)nc4n3)C2)CCN1` [Compound 12], < 10 µM. As to `Nc1nc2cc(-c3ccc4ncc(N5CCC(F)(F)CC5)nc4n3)ccc2o1` [Compound 13], the IC50 is < 10 µM. Take `C[C@@H]1COCCN1c1cnc2ccc(-c3ccc4oc(N)nc4c3)nc2n1` [Compound 14]: the IC50 is < 1 µM. In the case of `C[C@H]1COCCN1c1cnc2ccc(-c3ccc4oc(N)nc4c3)nc2n1` [Compound 15] it was < 1 µM. In the case of `Nc1nc2cc(-c3ccc4ncc(-c5cccnc5)cc4n3)ccc2o1` [Compound 16] it was > 10 µM; in that of `C[C@H]1CN(C2CN(c3cnc4ccc(-c5ccc6oc(N)nc6c5)nc4n3)C2)CCN1C` [Compound 21], < 10 µM. In the case of `Nc1nc2cc(-c3ccc4ncc(N5CCOCC5)cc4n3)ccc2o1` [Compound 22] it was < 10 µM; in that of `CN1CCN(c2cnc3ccc(-c4ccc5oc(N)nc5c4)nc3c2)CC1` [Compound 24], < 10 µM; in that of `C[C@@H]1CN(C2CN(c3cnc4ccc(-c5ccc6oc(N)nc6c5)nc4n3)C2)CCN1C` [Compound 25], < 10 µM. Regarding `C[C@@H]1CN(c2cnc3ccc(-c4ccc5oc(N)nc5c4)nc3n2)CCN1` [Compound 27], the IC50 is < 10 µM.

For `Nc1nc2cc(-c3ccc4ncc(N5CCNC(=O)C5)nc4n3)ccc2o1` [Compound 29], the concentration for half-maximal inhibition (IC50) was < 1 µM. In the case of `C[C@@H](N)C(=O)N1CCN(c2cnc3ccc(-c4ccc5oc(N)nc5c4)nc3n2)CC1` [Compound 31] it was < 10 µM; in that of `CC(C)N1CCN(c2cnc3ccc(-c4ccc5oc(N)nc5c4)nc3n2)CC1` [Compound 32], < 10 µM. The result for `NCC(=O)N1CCN(c2cnc3ccc(-c4ccc5oc(N)nc5c4)nc3n2)CC1` [Compound 33] reads > 10 µM. The result for `Nc1nc2cc(-c3ccc4ncc(N5CC(N6CCNCC6)C5)nc4n3)ccc2o1` [Compound 34] reads > 10 µM; that for `Nc1nc2cc(-c3ccc4ncc(N5CC(N6CCN(CC7CC7)CC6)C5)nc4n3)ccc2o1` [Compound 35], < 10 µM. As for `CCOC(=O)N1CCN(c2cnc3ccc(-c4ccc5oc(N)nc5c4)nc3c2)CC1` [Compound 36], the IC50 was < 1 µM. `NCC(=O)N1CCN(c2cnc3ccc(-c4ccc5oc(N)nc5c4)nc3c2)CC1` [Compound 37]: the IC50 was < 10 µM. In the case of `C[C@H](N)C(=O)N1CCN(c2cnc3ccc(-c4ccc5oc(N)nc5c4)nc3c2)CC1` [Compound 38] it was < 10 µM; in that of `C[C@@H](N)C(=O)N1CCN(c2cnc3ccc(-c4ccc5oc(N)nc5c4)nc3c2)CC1` [Compound 39], < 10 µM; in that of `CC(C)(N)C(=O)N1CCN(c2cnc3ccc(-c4ccc5oc(N)nc5c4)nc3n2)CC1` [Compound 40], < 10 µM. Take `Nc1nc2cc(-c3ccc4ncc(N5CCN(C(=O)C6(N)CC6)CC5)nc4n3)ccc2o1` [Compound 41]: the IC50 was < 10 µM. With `Nc1nc2cc(-c3ccc4ncc(N5CCN(C(=O)C6(N)CC6)CC5)cc4n3)ccc2o1` [Compound 42], the IC50 is < 1 µM. The result for `CC(C)(N)C(=O)N1CCN(c2cnc3ccc(-c4ccc5oc(N)nc5c4)nc3c2)CC1` [Compound 43, 2-amino-1-(4-(6-(2-aminobenzo[d]oxazol-5-yl)-1,5-naphthyridin-3-yl)piperazin-1-yl)-2-methylpropan-1-one] reads < 1 µM; that for `CC(C)N1CCN(c2cnc3ccc(-c4ccc5oc(N)nc5c4)nc3c2)CC1` [Compound 44], < 10 µM; that for `Nc1nc2cc(-c3ccc4ncc(N5CCC(O)CC5)nc4n3)ccc2o1` [Compound 45], < 1 µM.

In the case of `Nc1nc2cc(-c3ccc4ncc(N5CC(N6CCN(CCO)CC6)C5)nc4n3)ccc2o1` [Compound 46], the IC50 is < 10 µM. The result for `C[C@H]1CN(c2cnc3ccc(-c4ccc5oc(N)nc5c4)nc3c2)CCN1` [Compound 47] reads < 10 µM.

For `C[C@@H]1CN(c2cnc3ccc(-c4ccc5oc(N)nc5c4)nc3c2)CCN1` [Compound 48], the IC50 is < 10 µM. The result for `Cc1nccn1C1CN(c2cnc3ccc(-c4ccc5oc(N)nc5c4)nc3n2)C1` [Compound 50] reads < 10 µM; that for `CC1(C)CN(C2CN(c3cnc4ccc(-c5ccc6oc(N)nc6c5)nc4n3)C2)CCN1` [Compound 52], < 1 µM. Turning to `Nc1nc2cc(-c3ccc4ncc(N5CC(N6CCOCC6)C5)cc4n3)ccc2o1` [Compound 53], the IC50 is < 10 µM.

On to `C[C@H]1CN(C2CN(c3cnc4ccc(-c5ccc6oc(N)nc6c5)nc4c3)C2)CCN1` [Compound 54], for which the IC50 is < 1 µM. The result for `C[C@H]1CN(C2CN(c3cnc4ccc(-c5ccc6oc(N)nc6c5)nc4c3)C2)CCN1C` [Compound 55] reads < 1 µM; that for `C[C@@H]1CN(C2CN(c3cnc4ccc(-c5ccc6oc(N)nc6c5)nc4c3)C2)CCN1` [Compound 56], < 1 µM; that for `C[C@@H]1CN(C2CN(c3cnc4ccc(-c5ccc6oc(N)nc6c5)nc4c3)C2)CCN1C` [Compound 57], < 1 µM. The result for `CC1(C)CN(C2CN(c3cnc4ccc(-c5ccc6oc(N)nc6c5)nc4c3)C2)CCN1` [Compound 58] reads < 1 µM. In the case of `Nc1nc2cc(-c3ccc4ncc(N5CC(N6CCN(CC7CC7)CC6)C5)cc4n3)ccc2o1` [Compound 60] it was < 1 µM.

For the molecule `C[C@H]1COCCN1C1CN(c2cnc3ccc(-c4ccc5oc(N)nc5c4)nc3n2)C1` [Compound 61], the IC50 was > 10 µM. In the case of `Nc1nc2cc(-c3ccc4ncc(N5CCC(O)CC5)cc4n3)ccc2o1` [Compound 62] it was < 10 µM; in that of `Cc1nccn1C1CN(c2cnc3ccc(-c4ccc5oc(N)nc5c4)nc3c2)C1` [Compound 63], < 10 µM; in that of `CN1CCN(C2CN(c3cnc4ccc(-c5ccc6oc(N)nc6c5)nc4c3)C2)CC1=O` [Compound 64], < 1 µM.

Turning to `Nc1nc2cc(-c3ccc4ncc(N5CC(N6CCN(CCO)CC6)C5)cc4n3)ccc2o1` [Compound 65], the IC50 was < 1 µM. On to `C[C@@H]1COCCN1C1CN(c2cnc3ccc(-c4ccc5oc(N)nc5c4)nc3c2)C1` [Compound 66], for which the concentration for half-maximal inhibition (IC50) was < 10 µM. The result for `C[C@H]1COCCN1C1CN(c2cnc3ccc(-c4ccc5oc(N)nc5c4)nc3c2)C1` [Compound 68] reads < 10 µM; that for `Nc1nc2cc(-c3ccc4ncc(N5CC(N6CCN(C7CC7)CC6)C5)nc4n3)ccc2o1` [Compound 69], < 10 µM.

On to `Nc1nc2cc(-c3ccc4ncc(N5CC(N6CCN(C7CC7)CC6)C5)cc4n3)ccc2o1` [Compound 70], for which the IC50 was < 10 µM. Take `CN1CCN(C2CN(c3cnc4ccc(-c5ccc6oc(N)nc6c5)nc4n3)C2)CC1` [Compound 71]: the IC50 was < 10 µM.

Turning to `CC(C)N1CCN(C2CN(c3cnc4ccc(-c5ccc6oc(N)nc6c5)nc4c3)C2)CC1` [Compound 72, 5-(7-(3-(4-isopropylpiperazin-1-yl)azetidin-1-yl)-1,5-naphthyridin-2-yl)benzo[d]oxazol-2-amine], the IC50 is < 1 µM.

As to `CN1CCN(C2CN(c3cnc4ccc(-c5ccc6oc(N)nc6c5)nc4c3)C2)CC1` [Compound 74], the IC50 is < 1 µM. Consider `CCN1CCN(C2CN(c3cnc4ccc(-c5ccc6oc(N)nc6c5)nc4c3)C2)CC1` [Compound 75], for which the IC50 is < 1 µM. The result for `CN1CC2CN(c3cnc4ccc(-c5ccc6oc(N)nc6c5)nc4n3)CC2C1` (stereo not drawn) [Compound 78] reads < 10 µM.

(Values after patent publication US20140323721A1, “HETEROCYCLIC COMPOUNDS AND USES THEREOF” (INTELLIKINE, LLC, priority 2011, published 2014).)
